Values after ≈ are worked out from the molar mass of the structure shown. Where two headings read alike, the source gives them in different places.
Experiments:
[1] = Cytotoxicity against mock-infected MT-4 cells (MTT); format: cell-based, human; details: human, concentration reducing viability of mock-infected MT-4 cells by 50%
Experimental: (§1) Cell line supporting the multiplication of Human Immunodeficiency Virus type-1 (HIV-1) was the CD4+ human T-cells, derived from human hematological tumors, containing an integrated HTLV-1 genome (MT-4). Cells were purchased from American Type Culture Collection (ATCC). Human Immunodeficiency Virus type-1 (HIV-1) IIIB laboratory strain was obtained from the supernatant of the persistently infected H9/IIIB cells (NIH 1983).
Exponentially growing MT-4 cells were seeded at an initial density of 1 × 10^5 cells/mL in 96-well plates in RPMI-1640 medium, supplemented with 10% fetal bovine serum (FBS), 100 units/mL penicillin G and 100 μg/mL streptomycin. Cell cultures were then incubated at 37 °C in a humidified, 5% CO2 atmosphere, in the absence or presence of serial dilutions of tested compounds. Cell viability was determined after 96 h at 37 °C by the 3-(4,5-dimethylthiazol-2-yl)-2,5-diphenyl-tetrazolium bromide (MTT) method.

[2] = test system: HIV-1 IIIB; experiment: Anti-HIV-1 activity: protection of MT-4 cells from virus-induced cytopathogenicity (MTT); format: cell-based, Human Immunodeficiency Virus type-1; details: Human immunodeficiency virus 1, IIIB, MT4, 96 h, read-out: HIV-1IIIB EC50
From the text: as §1
The activity of compounds against HIV-1 was based on inhibition of virus-induced cytopathogenicity in MT-4 cell acutely infected with a multiplicity of infection (m.o.i.) of 0.01. Briefly, 50 μL of RPMI containing 1 × 10^4 MT-4 cells were added to each well of flat-bottom microtiter trays, containing 50 μL of RPMI without or with serial dilutions of test compounds. Then, 20 μL of a HIV-1 suspension containing 100 CCID50 were added. After a 4-day incubation at 37 °C, cell viability was determined by the MTT method.

[3] = test system: B. cereus ATCC 11778; experiment: MIC, twofold serial microdilution; format: cell-based; details: Bacillus cereus, ATCC11778; standard strain, 18 h, 35 °C
Experimental: (§2) The antimicrobial activity of the compounds was tested on Gram-positive bacteria (Staphylococcus aureus NCTC 4163, Staphylococcus aureus ATCC 25923, Staphylococcus aureus ATCC 6538, Staphylococcus aureus ATCC 29213, Staphylococcus epidermidis ATCC 12228, Staphylococcus epidermidis ATCC 35984, Enterococcus faecalis ATCC 29212, Bacillus subtilis ATCC 6633, Bacillus cereus ATCC 11778, Micrococcus luteus ATCC 9341, Micrococcus luteus ATCC 10240); Gram-negative rods (Escherichia coli ATCC 10538, Escherichia coli ATCC 25922, Escherichia coli NCTC 8196, Proteus vulgaris NCTC 4635, Pseudomonas aeruginosa ATCC 15442, Pseudomonas aeruginosa NCTC 6749, Pseudomonas aeruginosa ATCC 27863, Bordetella bronchiseptica ATCC 4617) and yeasts (Candida albicans ATCC 10231, Candida albicans ATCC 90028, Candida parapsilosis ATCC 22019). Other microorganisms used were obtained from the collection of the Department of Pharmaceutical Microbiology, Medical University of Warsaw, Poland.
(§3) Antibacterial activity was examined by the disc-diffusion method under standard conditions using Mueller-Hinton II agar medium (Becton Dickinson) according to CLSI (previously NCCLS) guidelines. Antifungal activities were assessed using Mueller-Hinton agar + 2% glucose and 0.5 µg/mL Methylene Blue Dye Medium. Sterile filter paper discs (9 mm diameter, Whatman No 3 chromatography paper) were dripped with tested compound solutions (in DMSO) to load 400 μg of a given compound per disc. Dry discs were placed on the surface of appropriate agar medium. The results (diameter of the growth inhibition zone) were read after 18 h of incubation at 35 °C. Minimal Inhibitory Concentration (MIC) was tested by the twofold serial microdilution method (in 96-well microtiter plates) using Mueller-Hinton Broth medium (Beckton Dickinson) for bacteria or RPMI-1640 medium for Candida species according to CLSI guidelines. The stock solution of tested agent was prepared in DMSO and diluted in sterile water. Concentrations of tested agents ranged from 0.125 to 512 µg/mL. The final inoculum of all studied microorganisms was 10^5 CFU/ mL^−1 (colony forming units per mL). Minimal inhibitory concentrations (the lowest concentration of a tested agent that prevents visible growth of a microorganism) were read after 18 h (bacteria) or 24 h (yeasts) of incubation at 35 °C.

[4] = test system: B. subtilis ATCC 6633; experiment: MIC, twofold serial microdilution; format: cell-based; details: Bacillus subtilis, ATCC6633; standard strain, 18 h, 35 °C
Experimental: as §2, §3

[5] = test system: E. faecalis ATCC 29212; experiment: MIC, twofold serial microdilution; format: cell-based; details: Enterococcus faecalis, ATCC29212; standard strain, 18 h, 35 °C
Experimental: as §2, §3

[6] = test system: M. luteus ATCC 10240; experiment: MIC, twofold serial microdilution; format: cell-based; details: Micrococcus luteus, ATCC10240; standard strain, 18 h, 35 °C
Experimental: as §2, §3

[7] = test system: M. luteus ATCC 9341; experiment: MIC, twofold serial microdilution; format: cell-based; details: Micrococcus luteus, ATCC9341; standard strain, 18 h, 35 °C
Experimental: as §2, §3

[8] = test system: S. aureus ATCC 25923; experiment: MIC, twofold serial microdilution; format: cell-based; details: Staphylococcus aureus, ATCC25923; standard strain, 18 h, 35 °C
Experimental: as §2, §3

[9] = test system: S. aureus ATCC 29213; experiment: MIC, twofold serial microdilution; format: cell-based; details: Staphylococcus aureus, ATCC29213; standard strain, 18 h, 35 °C
Experimental: as §2, §3

[10] = test system: S. aureus ATCC 6538; experiment: MIC, twofold serial microdilution; format: cell-based; details: Staphylococcus aureus, ATCC6538; standard strain, 18 h, 35 °C
Experimental: as §2, §3

[11] = test system: S. aureus NCTC 4163; experiment: MIC, twofold serial microdilution; format: cell-based; details: Staphylococcus aureus, NCTC4163; standard strain, 18 h, 35 °C
Experimental: as §2, §3

[12] = test system: S. epidermidis ATCC 12228; experiment: MIC, twofold serial microdilution; format: cell-based; details: Staphylococcus epidermidis, ATCC12228; standard strain, 18 h, 35 °C
Experimental: as §2, §3

[13] = test system: S. epidermidis ATCC 35984; experiment: MIC, twofold serial microdilution; format: cell-based; details: Staphylococcus epidermidis, ATCC35984; standard strain, 18 h, 35 °C
Experimental: as §2, §3

[14] = test system: S. epidermidis MRSE 403/11; experiment: MIC, hospital methicillin-resistant strain; format: cell-based; details: Staphylococcus epidermidis
Experimental: as §2, §3

[15] = test system: S. epidermidis MRSE 404/11; experiment: MIC, hospital methicillin-resistant strain; format: cell-based; details: Staphylococcus epidermidis
Experimental: as §2, §3

[16] = test system: S. epidermidis MRSE 405/11; experiment: MIC, hospital methicillin-resistant strain; format: cell-based; details: Staphylococcus epidermidis
Experimental: as §2, §3

[17] = test system: S. epidermidis MRSE 406/11; experiment: MIC, hospital methicillin-resistant strain; format: cell-based; details: Staphylococcus epidermidis
Experimental: as §2, §3

[18] = test system: S. epidermidis MRSE 407/11; experiment: MIC, hospital methicillin-resistant strain; format: cell-based; details: Staphylococcus epidermidis
Experimental: as §2, §3

[19] = test system: S. epidermidis MRSE 409/11; experiment: MIC, hospital methicillin-resistant strain; format: cell-based; details: Staphylococcus epidermidis
Experimental: as §2, §3

[20] = test system: S. epidermidis MRSE 411/11; experiment: MIC, hospital methicillin-resistant strain; format: cell-based; details: Staphylococcus epidermidis
Experimental: as §2, §3

[21] = test system: S. epidermidis MRSE 412/11; experiment: MIC, hospital methicillin-resistant strain; format: cell-based; details: Staphylococcus epidermidis
Experimental: as §2, §3

[22] = test system: S. epidermidis MRSE 413/11; experiment: MIC, hospital methicillin-resistant strain; format: cell-based; details: Staphylococcus epidermidis
Experimental: as §2, §3

[23] = test system: S. epidermidis MRSE 422/11; experiment: MIC, hospital methicillin-resistant strain; format: cell-based; details: Staphylococcus epidermidis
Experimental: as §2, §3

[24] = test system: staphylococci; experiment: MIC against staphylococci; format: cell-based; details: moderate activity
Experimental: as §2, §3

[25] = 50% protection of MT-4 cells from HIV-1 induced cytopathogenicity, MTT, 4-day incubation

Row | MIC [3] | MIC [4] | MIC [6] | MIC [7] | MIC [8] | MIC [9] | MIC [10] | MIC [11] | MIC [12] | MIC [13] | MIC [14] | MIC [15] | MIC [16] | MIC [17] | MIC [18] | MIC [19] | MIC [20] | MIC [21] | MIC [22] | SMILES | CC50 at 96 h [1] | further results
1 | 8 µg/mL (≈ 25 µM) | 16 µg/mL (≈ 50 µM) | 32 µg/mL (≈ 100 µM) | 16 µg/mL (≈ 50 µM) | 16 µg/mL (≈ 50 µM) | 16 µg/mL (≈ 50 µM) | 16 µg/mL (≈ 50 µM) | 16 µg/mL (≈ 50 µM) | 16 µg/mL (≈ 50 µM) | 16 µg/mL (≈ 50 µM) | 32 µg/mL (≈ 100 µM) | 32 µg/mL (≈ 100 µM) | 32 µg/mL (≈ 100 µM) | 32 µg/mL (≈ 100 µM) | 32 µg/mL (≈ 100 µM) | 32 µg/mL (≈ 100 µM) | 32 µg/mL (≈ 100 µM) | 32 µg/mL (≈ 100 µM) | 32 µg/mL (≈ 100 µM) | CSCCCNC(=S)Nc1ccc(Cl)c([N+](=O)[O-])c1 [Compound 29, 1-(4-chloro-3-nitrophenyl)-3-[3-(methylsulfanyl)propyl]thiourea] | 33.7 µM | EC50 [2, 25]: > 33.7 µM; MIC [5]: 64 µg/mL (≈ 200 µM); MIC [23]: 32 µg/mL (≈ 100 µM); MIC range towards staphylococci [24]: 8 to 16 µg/mL; melting point: 102 to 103.5 °C
2 | 32 µg/mL (≈ 118 µM) | 32 µg/mL (≈ 118 µM) | 32 µg/mL (≈ 118 µM) | 32 µg/mL (≈ 118 µM) | 32 µg/mL (≈ 118 µM) | 64 µg/mL (≈ 236 µM) | 32 µg/mL (≈ 118 µM) | 64 µg/mL (≈ 236 µM) | 32 µg/mL (≈ 118 µM) | 32 µg/mL (≈ 118 µM) | 64 µg/mL (≈ 236 µM) | 64 µg/mL (≈ 236 µM) | 64 µg/mL (≈ 236 µM) | 64 µg/mL (≈ 236 µM) | 64 µg/mL (≈ 236 µM) | 64 µg/mL (≈ 236 µM) | 64 µg/mL (≈ 236 µM) | 128 µg/mL (≈ 471 µM) | 64 µg/mL (≈ 236 µM) | C=CCNC(=S)Nc1ccc(Cl)c([N+](=O)[O-])c1 [Compound 28, 1-(4-chloro-3-nitrophenyl)-3-prop-2-en-1-ylthiourea] | 43 µM | EC50 [2, 25]: ≥ 43 µM; MIC [5]: 64 µg/mL (≈ 236 µM); MIC [23]: 128 µg/mL (≈ 471 µM); melting point: 112 to 114 °C

Row | SMILES | MIC [3] | MIC [4] | MIC [6] | MIC [7] | MIC [8] | MIC [9] | MIC [10] | MIC [11] | MIC [12] | MIC [13] | MIC [14] | MIC [15] | MIC [16] | MIC [17] | MIC [18] | MIC [19] | MIC [20] | MIC [21] | MIC [22] | CC50 at 96 h [1] | further results
3 | O=[N+]([O-])c1cc(NC(=S)NC2CC3CCC2C3)ccc1Cl (stereo not shown) [Compound 24, 1-bicyclo[2.2.1]hept-2-yl-3-(4-chloro-3-nitrophenyl)thiourea] | 8 µg/mL (≈ 24.6 µM) | 8 µg/mL (≈ 24.6 µM) | 16 µg/mL (≈ 49.1 µM) | 32 µg/mL (≈ 98.2 µM) | 8 µg/mL (≈ 24.6 µM) | 8 µg/mL (≈ 24.6 µM) | 8 µg/mL (≈ 24.6 µM) | 8 µg/mL (≈ 24.6 µM) | 16 µg/mL (≈ 49.1 µM) | 16 µg/mL (≈ 49.1 µM) | 4 µg/mL (≈ 12.3 µM) | 4 µg/mL (≈ 12.3 µM) | 4 µg/mL (≈ 12.3 µM) | 8 µg/mL (≈ 24.6 µM) | 4 µg/mL (≈ 12.3 µM) | 4 µg/mL (≈ 12.3 µM) | 4 µg/mL (≈ 12.3 µM) | 4 µg/mL (≈ 12.3 µM) | 4 µg/mL (≈ 12.3 µM) | 16 µM | EC50 [2]: > 16 µM; MIC [23]: 4 µg/mL (≈ 12.3 µM); MIC range towards staphylococci [24]: 8 to 16 µg/mL; melting point: 94 to 96 °C

— PMC6222614, “Disubstituted 4-Chloro-3-nitrophenylthiourea Derivatives: Antimicrobial and Cytotoxic Studies” (Molecules : A Journal of Synthetic Chemistry and Natural …, 2018)
